Test results reported in patent US20230372498A1, “PLK1 SELECTIVE DEGRADATION INDUCING COMPOUND” (UPPTHERA, priority 2020, published 2023).

Target: T1, PLK1 (Homo sapiens, UniProt P53350)
T1 construct: endogenous in cells; host or cells: HeLa
Test: PLK1 protein degradation in HeLa cells, Western blotting (PLK1/GAPDH ratio)
Assay type: cell-based
Conditions: 6 hours compound incubation; for DC50: measured only if the grade of Dmax is A or B; for Dmax: thymidine block and release, 10 points three-fold from 3 μM, PLK1 to GAPDH ratio, read-out: Dmax
Outline: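 PLK1 level measured by Western blot as PLK1/GAPDH in HeLa lysates (15 μg protein per lane). Cells were blocked with 2 mM thymidine 24 h, released 4 h, and exposed 6 h to compound, 10 concentrations, 3-fold steps, top 3 μM.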

T1 sequence (P53350 whole entry): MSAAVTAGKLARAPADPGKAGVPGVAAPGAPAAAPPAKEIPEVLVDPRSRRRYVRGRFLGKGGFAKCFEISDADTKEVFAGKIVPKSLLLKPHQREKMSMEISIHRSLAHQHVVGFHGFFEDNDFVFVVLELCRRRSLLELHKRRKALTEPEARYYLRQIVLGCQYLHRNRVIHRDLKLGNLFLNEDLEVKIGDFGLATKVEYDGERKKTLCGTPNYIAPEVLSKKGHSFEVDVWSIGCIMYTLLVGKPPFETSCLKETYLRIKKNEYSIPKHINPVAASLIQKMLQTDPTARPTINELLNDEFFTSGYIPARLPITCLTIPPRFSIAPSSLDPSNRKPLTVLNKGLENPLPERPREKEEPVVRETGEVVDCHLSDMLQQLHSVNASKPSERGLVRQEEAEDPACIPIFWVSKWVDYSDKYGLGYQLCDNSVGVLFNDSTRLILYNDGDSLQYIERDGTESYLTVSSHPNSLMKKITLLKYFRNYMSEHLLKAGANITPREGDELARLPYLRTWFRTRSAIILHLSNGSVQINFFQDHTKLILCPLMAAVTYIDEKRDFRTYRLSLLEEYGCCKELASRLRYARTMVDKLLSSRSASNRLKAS

| SMILES | DC50 [µM] | Dmax [%] |
| --- | --- | --- |
| CCC(C)Oc1cc(C(=O)NC2CCN(CCOCCOCCNc3cccc4c3C(=O)N(C3CCC(=O)NC3=O)C4=O)CC2)c(F)cc1Nc1ncc2c(n1)N(C1CCCC1)CC(F)(F)C(=O)N2C (stereo not shown) [Example 94, 5-(sec-butoxy)-4-((9-cyclopentyl-7,7-difluoro-5-methyl-6-oxo-6,7,8,9-tetrahydro-5H-pyrimido[4,5-b][1,4]diazepin-2-yl)amino)-N-(1-(2-(2-(2-((2-(2,6-dioxopiperidin-3-yl)-1,3-dioxoisoindolin-4-yl)amino)ethoxy)ethoxy)ethyl)piperidin-4-yl)-2-fluorobenzamide] | > 0.5 | 60 to 80 |
| CN1C(=O)C(F)(F)CN(C2CCCC2)c2nc(Nc3cc(F)c(C(=O)NC4CCN(CCOCCOCCNc5cccc6c5C(=O)N(C5CCC(=O)NC5=O)C6=O)CC4)cc3OC3CCCC3)ncc21 (stereo not shown) [Example 95, 4-((9-cyclopentyl-7,7-difluoro-5-methyl-6-oxo-6,7,8,9-tetrahydro-5H-pyrimido[4,5-b][1,4]diazepin-2-yl)amino)-5-(cyclopentyloxy)-N-(1-(2-(2-(2-((2-(2,6-dioxopiperidin-3-yl)-1,3-dioxoisoindolin-4-yl)amino)ethoxy)ethoxy)ethyl)piperidin-4-yl)-2-fluorobenzamide] | > 0.5 | 60 to 80 |
| CN1C(=O)C(F)(F)CN(C2CCCC2)c2nc(Nc3cc(F)c(C(=O)NC4CCN(CCOCCOCCNc5cccc6c5C(=O)N(C5CCC(=O)NC5=O)C6=O)CC4)cc3OCCO)ncc21 (stereo not shown) [Example 97, 4-((9-cyclopentyl-7,7-difluoro-5-methyl-6-oxo-6,7,8,9-tetrahydro-5H-pyrimido[4,5-b][1,4]diazepin-2-yl)amino)-N-(1-(2-(2-(2-((2-(2,6-dioxopiperidin-3-yl)-1,3-dioxoisoindolin-4-yl)amino)ethoxy)ethoxy)ethyl)piperidin-4-yl)-2-fluoro-5-(2-hydroxyethoxy)benzamide] |  | < 60 |
| CN1C(=O)C(F)(F)CN(C2CCCC2)c2nc(Nc3cc(F)c(C(=O)NC4CCN(CCOCCOCCNc5cccc6c5C(=O)N(C5CCC(=O)NC5=O)C6=O)CC4)cc3OC(F)(F)F)ncc21 (stereo not shown) [Example 99, 4-((9-cyclopentyl-7,7-difluoro-5-methyl-6-oxo-6,7,8,9-tetrahydro-5H-pyrimido[4,5-b][1,4]diazepin-2-yl)amino)-N-(1-(2-(2-(2-((2-(2,6-dioxopiperidin-3-yl)-1,3-dioxoisoindolin-4-yl)amino)ethoxy)ethoxy)ethyl)piperidin-4-yl)-2-fluoro-5-(trifluoromethoxy)benzamide] | ≤ 0.5 | 60 to 80 |
| COc1cc(C(=O)NC2CCN(CCOCCOCCNc3cccc4c3C(=O)N(C3CCC(=O)NC3=O)C4=O)CC2)c(F)cc1Nc1ncc2c(n1)N(C(C)C)CC(F)(F)C(=O)N2C (stereo not shown) [Example 100, 4-((7,7-difluoro-9-isopropyl-5-methyl-6-oxo-6,7,8,9-tetrahydro-5H-pyrimido[4,5-b][1,4]diazepin-2-yl)amino)-N-(1-(2-(2-(2-((2-(2,6-dioxopiperidin-3-yl)-1,3-dioxoisoindolin-4-yl)amino)ethoxy)ethoxy)ethyl)piperidin-4-yl)-2-fluoro-5-methoxybenzamide] | ≤ 0.5 | 60 to 80 |
| COc1cc(C(=O)NC2CCCN(CCOCCNc3cccc4c3C(=O)N(C3CCC(=O)NC3=O)C4=O)C2)c(F)cc1Nc1ncc2c(n1)N(C1CCCC1)CC(F)(F)C(=O)N2C (stereo not shown) [Example 105, 4-((9-cyclopentyl-7,7-difluoro-5-methyl-6-oxo-6,7,8,9-tetrahydro-5H-pyrimido[4,5-b][1,4]diazepin-2-yl)amino)-N-(1-(2-(2-((2-(2,6-dioxopiperidin-3-yl)-1,3-dioxoisoindolin-4-yl)amino)ethoxy)ethyl)piperidin-3-yl)-2-fluoro-5-methoxybenzamide] | ≤ 0.5 | 60 to 80 |
| COc1cc(C(=O)NC2CCN(CCOCCNc3cccc4c3C(=O)N(C3CCC(=O)NC3=O)C4=O)C2)c(F)cc1Nc1ncc2c(n1)N(C1CCCC1)CC(F)(F)C(=O)N2C (stereo not shown) [Example 106, 4-((9-cyclopentyl-7,7-difluoro-5-methyl-6-oxo-6,7,8,9-tetrahydro-5H-pyrimido[4,5-b][1,4]diazepin-2-yl)amino)-N-(1-(2-(2-((2-(2,6-dioxopiperidin-3-yl)-1,3-dioxoisoindolin-4-yl)amino)ethoxy)ethyl)pyrrolidin-3-yl)-2-fluoro-5-methoxybenzamide] | ≤ 0.5 | 60 to 80 |
| COc1cc(C(=O)NC2CCN(CCCCCNc3cccc4c3C(=O)N(C3CCC(=O)NC3=O)C4=O)C2)c(F)cc1Nc1ncc2c(n1)N(C1CCCC1)CC(F)(F)C(=O)N2C (stereo not shown) [Example 109, 4-((9-cyclopentyl-7,7-difluoro-5-methyl-6-oxo-6,7,8,9-tetrahydro-5H-pyrimido[4,5-b][1,4]diazepin-2-yl)amino)-N-(1-(5-((2-(2,6-dioxopiperidin-3-yl)-1,3-dioxoisoindolin-4-yl)amino)pentyl)pyrrolidin-3-yl)-2-fluoro-5-methoxybenzamide] | ≤ 0.5 | 60 to 80 |

Now from value to molecule:

| DC50 [µM] | Dmax [%] | SMILES |
| --- | --- | --- |
| ≤ 0.05 | ≥ 80 | COc1cc(C(=O)NC2CCN(CCOCCOCCNc3cccc4c3C(=O)N(C3CCC(=O)NC3=O)C4=O)CC2)ccc1Nc1ncc2c(n1)N(C1CCCC1)CC(F)(F)C(=O)N2C (stereo not shown) [Example 96, 4-((9-cyclopentyl-7,7-difluoro-5-methyl-6-oxo-6,7,8,9-tetrahydro-5H-pyrimido[4,5-b][1,4]diazepin-2-yl)amino)-N-(1-(2-(2-(2-((2-(2,6-dioxopiperidin-3-yl)-1,3-dioxoisoindolin-4-yl)amino)ethoxy)ethoxy)ethyl)piperidin-4-yl)-3-methoxybenzamide] |
| ≤ 0.5 | 60 to 80 | CN1C(=O)C(F)(F)CN(C2CCCC2)c2nc(Nc3ccc(C(=O)NC4CCN(CCOCCOCCNc5cccc6c5C(=O)N(C5CCC(=O)NC5=O)C6=O)CC4)cc3OCCO)ncc21 (stereo not shown) [Example 98, 4-((9-cyclopentyl-7,7-difluoro-5-methyl-6-oxo-6,7,8,9-tetrahydro-5H-pyrimido[4,5-b][1,4]diazepin-2-yl)amino)-N-(1-(2-(2-(2-((2-(2,6-dioxopiperidin-3-yl)-1,3-dioxoisoindolin-4-yl)amino)ethoxy)ethoxy)ethyl)piperidin-4-yl)-3-(2-hydroxyethoxy)benzamide] |
| ≤ 0.05 | ≥ 80 | COc1cc(C(=O)NC2CCN(CCOCCOCCOCCOCCNc3cccc4c3C(=O)N(C3CCC(=O)NC3=O)C4=O)CC2)c(F)cc1Nc1ncc2c(n1)N(C(C)C)CC(F)(F)C(=O)N2C (stereo not shown) [Example 101, 4-((7,7-difluoro-9-isopropyl-5-methyl-6-oxo-6,7,8,9-tetrahydro-5H-pyrimido[4,5-b][1,4]diazepin-2-yl)amino)-N-(1-(14-((2-(2,6-dioxopiperidin-3-yl)-1,3-dioxoisoindolin-4-yl)amino)-3,6,9,12-tetraoxatetradecyl)piperidin-4-yl)-2-fluoro-5-methoxybenzamide] |
| ≤ 0.05 | ≥ 80 | CN1C(=O)C(F)(F)CN(C2CCCC2)c2nc(Nc3ccc(C(=O)NC4CCN(C(=O)CCCNc5cccc6c5C(=O)N(C5CCC(=O)NC5=O)C6=O)CC4)cc3)ncc21 (stereo not shown) [Example 102, 4-((9-cyclopentyl-7,7-difluoro-5-methyl-6-oxo-6,7,8,9-tetrahydro-5H-pyrimido[4,5-b][1,4]diazepin-2-yl)amino)-N-(1-(4-((2-(2,6-dioxopiperidin-3-yl)-1,3-dioxoisoindolin-4-yl)amino)butanoyl)piperidin-4-yl)benzamide] |
| ≤ 0.05 | ≥ 80 | COc1cc(C(=O)N[C@H]2CC[C@H](N3CCN(CCOCCNc4cccc5c4C(=O)N(C4CCC(=O)NC4=O)C5=O)CC3)CC2)c(F)cc1Nc1ncc2c(n1)N(C1CCCC1)CC(F)(F)C(=O)N2C (stereo partly shown) [Example 103, 4-((9-cyclopentyl-7,7-difluoro-5-methyl-6-oxo-6,7,8,9-tetrahydro-5H-pyrimido[4,5-b][1,4]diazepin-2-yl)amino)-N-((1r,4r)-4-(4-(2-(2-((2-(2,6-dioxopiperidin-3-yl)-1,3-dioxoisoindolin-4-yl)amino)ethoxy)ethyl)piperazin-1-yl)cyclohexyl)-2-fluoro-5-methoxybenzamide] |
| ≤ 0.05 | ≥ 80 | COc1cc(C(=O)NC2CCCN(CCOCCOCCNc3cccc4c3C(=O)N(C3CCC(=O)NC3=O)C4=O)C2)c(F)cc1Nc1ncc2c(n1)N(C1CCCC1)CC(F)(F)C(=O)N2C (stereo not shown) [Example 104, 4-((9-cyclopentyl-7,7-difluoro-5-methyl-6-oxo-6,7,8,9-tetrahydro-5H-pyrimido[4,5-b][1,4]diazepin-2-yl)amino)-N-(1-(2-(2-(2-((2-(2,6-dioxopiperidin-3-yl)-1,3-dioxoisoindolin-4-yl)amino)ethoxy)ethoxy)ethyl)piperidin-3-yl)-2-fluoro-5-methoxybenzamide] |
| ≤ 0.05 | ≥ 80 | COc1cc(C(=O)NC2CCN(CCOCCOCCNc3cccc4c3C(=O)N(C3CCC(=O)NC3=O)C4=O)C2)c(F)cc1Nc1ncc2c(n1)N(C1CCCC1)CC(F)(F)C(=O)N2C (stereo not shown) [Example 107, 4-((9-cyclopentyl-7,7-difluoro-5-methyl-6-oxo-6,7,8,9-tetrahydro-5H-pyrimido[4,5-b][1,4]diazepin-2-yl)amino)-N-(1-(2-(2-(2-((2-(2,6-dioxopiperidin-3-yl)-1,3-dioxoisoindolin-4-yl)amino)ethoxy)ethoxy)ethyl)pyrrolidin-3-yl)-2-fluoro-5-methoxybenzamide] |
| ≤ 0.05 | ≥ 80 | COc1cc(C(=O)NC2CCN(CCOCCOCCOCCOCCNc3cccc4c3C(=O)N(C3CCC(=O)NC3=O)C4=O)C2)c(F)cc1Nc1ncc2c(n1)N(C1CCCC1)CC(F)(F)C(=O)N2C (stereo not shown) [Example 108, 4-((9-cyclopentyl-7,7-difluoro-5-methyl-6-oxo-6,7,8,9-tetrahydro-5H-pyrimido[4,5-b][1,4]diazepin-2-yl)amino)-N-(1-(14-((2-(2,6-dioxopiperidin-3-yl)-1,3-dioxoisoindolin-4-yl)amino)-3,6,9,12-tetraoxatetradecyl)pyrrolidin-3-yl)-2-fluoro-5-methoxybenzamide] |
